The subject of one assay is primary human myoblasts. As to the kind of experiment: Proliferation of primary human myoblasts under PGI2 treatment. It is filed as cell-based.
Assay [1] relates to pure primary human myoblasts. As to the kind of experiment: Pure primary human myoblasts treated with PGI2-related drugs (Western blot, qRT-PCR). It counts as cell-based. (In general: Immunoblotting shows a protein as a band on a membrane.)
Assay [2] has as its system cryoinjured TA muscle. Briefly: PGI2 bolus in cryoinjured TA muscle: cAMP, PPARs, H3K9ac and myogenic markers. It is filed as in vivo, mice.
In assay [3] the test system is fibrosis in TA muscle, liver, skin and heart of 2-year old mice. As to the kind of experiment: Aging-induced fibrosis and fibrotic precursors in 2-year old mice after daily injection. It is filed as in vivo. Particulars: daily injection; for relative changes in the % fibrotic area (Masson trichrome staining) / relative changes in the percentage fraction of fibrotic precursors (PGDFRA-positive and Ki67-positive): 7 days post-injection, 2-year old mice. The text has this: (§1) Some tissues were flash frozen for cryosectioning.

Assay [4] relates to cryoinjured TA muscle. As to the kind of experiment: Muscle regeneration after cryoinjury: regenerative index, myogenic proteins, myofiber diameter, grip strength after bolus injection. It counts as in vivo, mice.
Source text: as §1

Assay [5] deals with muscle stem cells and myoblasts in gastrocnemius, quadriceps and TA muscle. Briefly: Stem cell and myoblast activation in skeletal muscles without injury, immunofluorescence 2 days after single bolus. It is filed as in vivo, mice. Particulars: TA muscle, 2 days after intramuscular single bolus.
Source text: as §1

Assay [6] relates to primary human myoblasts / myocytes. As to the kind of experiment: Etomoxir (CPT1 inhibitor) at different time-windows of myoblast differentiation: cell numbers, Western blot. It counts as cell-based.
A further assay has as its system human myocytes. Briefly: Seahorse O2 consumption rates in differentiating myocytes. Particulars: etomoxir at early 0-12 h and 12-24 h time-windows only. It is filed as cell-based. How it is done: HSKM progenitors were seeded onto Seahorse XF96 Cell Culture Microplate (Agilent), pre-coated with gelatin (0.1%, Merck-Millipore), in growth media at 10,000 cells per well. […] Before performing the Seahorse XF cell Mito Stress Test assay, cell culture media were replaced with assay media (Seahorse XF DMEM Medium, pH 7.4, 2 mM pyruvate, 2 mM glutamine) (Agilent) and incubated in a CO2-free incubator at 37° C. for 1 hour to equilibrate temperature and pH for each well. During the assay, Oligomycin (2 uM, Agilent), FCCP (0.5 uM, Agilent), and a mixture of Antimycin A and Rotenone (0.5 uM, Agilent), were injected sequentially and measurements were taken according to manufacturer's instructions. The data was analyzed using WAVE software.

Where [7] appears, read: differentiating myoblasts (24 h post-differentiation).
Setting [8] is: pure primary human myoblasts, relative to DMSO.
The mark [9] stands for this setting: TA muscle 1-2 days post-cryoinjury.
The mark [10] stands for this setting: injured TA muscle, single bolus.

Entries after “also recorded” stand apart in the source; their conditions may differ.

As to `CCCCC[C@H](O)/C=C/[C@@H]1[C@H]2C/C(=C/CCCC(=O)O)O[C@H]2C[C@H]1O` [PGI2, prostacyclin], in the assay on primary human myoblasts (early passage primary human myoblasts (passage 12)), the proliferation entry was “significantly increased proliferation; also recorded: significantly increase the proliferation rate”. Moreover, the proliferation result with primary human myoblasts (late passage primary human myoblasts (passage 18)) is on record as “significantly increased proliferation; also recorded: significantly increase the proliferation rate”. In assay [1] (setting [7]), the “mRNA markers of myoblasts including MyoD1 and Pax3” value is listed as “increased”; the “mRNA markers of myogenic differentiation including Myog, Myhc, Myh2, Myh3, Myh7, Myh8, Acta1” value was “sufficient to block committed myocytes from undergoing terminal differentiation; also recorded: decreased”. The “mRNA markers of myogenic differentiation including Myhc, Myh3, Myh8, and Acta1” value in assay [1] (proliferative myoblasts (24 h pre-differentiation)) is reported as “sufficient to promote proliferative myoblasts to undergo differentiation; also recorded: increased”. Moreover, in assay [1] (setting [8]), the “H3K9ac and MyoD protein (Western blot)” value is “increases; also recorded: followed the same pattern of regulation as PPARG”; the “PPARG protein levels (Western blot)” value is “increases PPARG protein; also recorded: stabilize and/or upregulate”. For the same compound, in the assay on cryoinjured TA muscle [2] (setting [9]), the “H3K9ac levels (Western blot)” value was “increased protein acetylation and especially histone acetylation”; the “PPARA protein (Western blot)” value is reported as “suppresses the increase in PPARA; also recorded: suppressed PPARA protein”; the “PPARD protein (Western blot)” value is listed as “exerts little effect on PPARD”; the “PPARG protein (Western blot)” value is “accelerates the increase in PPARG; also recorded: increased PPARG protein”. In the assay with cryoinjured TA muscle [2] (TA muscle 1-2 days post-freeze injury), the “percentage fraction of PPARG-positive cells (immunofluorescence)” value is “significantly increase PPARG-positive cells”. The “abundance of cyclic adenosine monophosphate (cAMP), MALDI-MSI” value in the assay on cryoinjured TA muscle [2] (TA muscle 6 days after single bolus) is “significantly decreased”. The “committed myoblasts (MyoG-positive Ki67-positive cells, immunofluorescence)” value in the assay with cryoinjured TA muscle [2] (TA muscle over 6 days post-injury (days 2-4), single bolus at 0 h) is recorded as “significantly increase committed myoblasts; also recorded: significantly increased”. Further, in the assay on cryoinjured TA muscle [2] (setting [10]), the “PPARA and PPARD mRNA expression (qRT-PCR)” value was “not PPARA nor PPARD”; the “PPARG mRNA expression (qRT-PCR)” value is given as “significantly increase PPARG mRNA expression”; the “Pax7, MyoD, MyoG, Myh3 mRNA expression (qRT-PCR)” value is listed as “significantly increased”. Further, in the assay with cryoinjured TA muscle [2] (non-injured and injured region of TA muscle, 6 days post-cryoinjury), the “PPARA, PPARD, PPARG, H3K9ac, PAX7, MyoD, MyoG and Myh3 protein expression (Western blot)” value is “can increase; also recorded: significantly increased all myogenesis markers”. Further, in assay [3] (TA muscle), the “relative changes in the % fibrotic area (Masson trichrome staining)” value (“relative changes in the % fibrotic area” below) is recorded as “partially reverse the aged muscle fibrosis; also recorded: significant reversal of aging-induced fibrosis”; the “relative changes in the percentage fraction of fibrotic precursors (PGDFRA-positive and Ki67-positive)” value is “partially suppress the aged muscle fibrotic precursors”. In assay [3] (heart tissue), the “relative changes in the % fibrotic area” value was “partially reverse the aged cardiac fibrosis”; the “relative changes in the percentage fraction of fibrotic precursors (PGDFRA-positive and Ki67-positive)” value is given as “partially suppress the aged cardiac fibrotic precursors”. In addition, in assay [3] (liver tissue), the “relative changes in the % fibrotic area” value is “partially reverse the aged liver fibrosis”; the “relative changes in the percentage fraction of fibrotic precursors (PGDFRA-positive and Ki67-positive)” value is given as “partially suppress the aged liver fibrotic precursors”. Besides, the “aging-induced fibrosis (fibrotic area) in multiple non-skeletal muscle tissues” value in assay [3] (liver, skin and heart, 2-year-old mice) was “significant reversal of aging-induced fibrosis”. In assay [3] (skin tissue), the “relative changes in the % fibrotic area” value is listed as “partially reverse the aged skin fibrosis”; the “relative changes in the percentage fraction of fibrotic precursors (PGDFRA-positive and Ki67-positive)” value was “partially suppress the aged skin fibrotic precursors”. Moreover, in the assay with cryoinjured TA muscle [4] (14 days post-injury, 6-week old mice, prostaglandin at 0 h, rosiglitazone at 24 h post-injury), the grip strength entry was “partially restore grip strength”. For the same compound, the “hypertrophic growth (myofiber cross-sectional Feret diameters)” value in the assay with cryoinjured TA muscle [4] (TA muscle 6.5 days post-injury, prostaglandin at day 0, rosiglitazone at day 1) was “increase hypertrophic growth”. Also, in the assay with cryoinjured TA muscle [4] (TA muscle 6.5 days post-injury, single bolus, combinations: prostaglandin at day 0, rosiglitazone at day 1, relative to DMSO vehicle), the “regenerative index (fraction of nuclei in embryonic MHC-positive myofibers)” value is listed as “significantly increase muscle regeneration; also recorded: significantly promoted muscle regeneration”. Besides, the “optimal PGI2 concentration for muscle regeneration (regenerative index saturated and peaked)” value with cryoinjured TA muscle [4] (titration of single bolus, TA muscle 6.5 days post-injury) was in the range of 6.5 to 13 mM. Further, in assay [5] (with or without HGF), the “percentage fraction of proliferative muscle stem cells (Pax7-positive Ki67-positive cells)” value is “significantly increased” and the “percentage fraction of proliferative myoblasts (MyoD-positive Ki67-positive cells)” value is recorded as “significantly decreased”. In addition, the “fraction of proliferative muscle stem cells (Pax7-positive Ki67-positive cells)” value in assay [5] (without injury) is on record as “significantly increased”.
For the compound `CCOC(=O)[C@@]1(CCCCCCOc2ccc(Cl)cc2)CO1` [etomoxir], the “MHC and MYOG protein phenotype (Western blot)” value in assay [6] (0-24 h mitochondrial FAO inhibition) was “MHC^low; MYOG^low”; in assay [6] (24 h-48 h mitochondrial FAO inhibition), “MHC^low; MYOG^high”; in assay [6] (48 h-72 h mitochondrial FAO inhibition), “MHC^high; MYOG^low”; in assay [6] (72 h-96 h mitochondrial FAO inhibition), “MHC^high; MYOG^high”. In assay [6] (treatment at 0-24 h and 24-48 h of myoblast differentiation), the “myocyte survival (relative cell numbers)” value is recorded as “severely compromised myocyte survival”. In addition, the O2 consumption rates entry with human myocytes is given as “decrease O2 consumption rates”.

The values are drawn from patent publication US20220362262A1, “METHODS AND COMPOSITIONS FOR TISSUE REGENERATION” (Institute of Zoology, Chinese Academy of Sciences, priority 2019, published 2022).
